Results as given in patent US20230065416A1, “CLATHRIN-CHIMETIC ANTIBODY RECEPTOR CONSTRUCTS FOR IMMUNE CELL ACTIVATION THERAPY IN VIVO” (NANOTOMER, INC., priority 2020, published 2023).
Like-named read-outs stand apart in the source and are kept apart here.

Key:
[1] = test system: 4T1 murine breast cancer; assay: Therapeutic study in BALB/c mice bearing 4T1 tumors; format: in vivo, mouse
Method: (§1) When the tumor size reached approximately 100 mm3, mice were randomly divided into three groups (n=6). […] The injection schedule was twice a week for two weeks. The tumor size and body weight of the mice were monitored during the treatment course. The length (l) and width (w) of the tumor were measured by a digital vernier caliper, and tumor volume (V) was defined as: […]V=l×w2/2. The tumor growth inhibition (TGI) was estimated by a following equation: TGI (%)=(Vc−Vt)/(Vc−Vi)×100, where Vc is the volume of the control tumor at the end of the study, Vt is the volume of drug-treated tumor at the end of the study, and Vi is the volume of tumor at the initial treatment.
Before the diameter of tumor reached approximately 20 mm, the mice were euthanized, and lungs, livers, kidneys, hearts, pancreas, spleen, tumor, non-drain inguinal lymph nodes (far from tumor), and drain inguinal lymph nodes (located near tumor) were harvested and embedded in optimum cutting temperature (OCT) compound (TISSUE TEK™; SAKURA FINETEK™; Torrance, Calif.).
Representative photos for tumors from each group on day 27 post-implant are shown in top images of FIG. 14B. We evaluated the tumor growth inhibition (TGI) rate of each group (see the details in Method).

[2] = test system: B16 melanoma; assay: Therapeutic study in C57BL/6 mice bearing B16 tumors; format: in vivo, mouse
From the text: as §1, with “BALB/c (female; 7-8 weeks) were subcutaneously implanted by 4T1 (100,000 cells; ATCC® CRL-2539™) on left 4th mammary glands. C57BL/6 (female; 7-8 weeks) were subcutaneously inoculated by B16 melanoma cells (100,000 cells; ATCC® CRL-6322™) or Lewis lung carcinoma line 1 cells (LLC1) (100,000 cells; ATCC® CRL-1642™) on right rear flanks. When” for “When”
Encouraged by the therapeutic effects for 4T1 tumor model, these protein-drug conjugates were further investigated for cancer therapy in a B16 (melanoma) or LLC1 (lung cancer)-bearing C57BL/6 mice. Drugs were now injected into mice having a tumor volume of approximately 100 mm3 according to the injection schedule identical to the 4T1 study.

[3] = test system: Lewis lung carcinoma line 1 (LLC1); assay: Therapeutic study in C57BL/6 mice bearing LLC1 tumors; format: in vivo, mouse; conditions: LLC1-bearing C57BL/6 mice; total dose of TAXOL® 32 μg/kg; n=6
Method: as §1

[4] = test system: ovarian carcinoma; conditions: cited from earlier work
[5] = test system: breast cancer; conditions: cited from earlier work
[6] = Trafficking of Protin-102 in a B6 mouse, imaging 24 hours post-injection; format: in vivo
Method: The clathrin heavy chains were labeled with CF680 dye, a cyanine-based dye that reacts with alkyne and is commonly used for labeling antibodies. The clathrin heavy chains were then injected into a C57BL/6 (B6) mouse, and imaging was performed 24 hours post-injection.

## CC(=O)O[C@H]1C(=O)[C@@]2(C)[C@H]([C@H](OC(=O)c3ccccc3)[C@]3(O)C[C@H](OC(=O)[C@H](O)[C@@H](NC(=O)c4ccccc4)c4ccccc4)C(C)=C1C3(C)C)[C@]1(OC(C)=O)CO[C@@H]1C[C@@H]2O [TAXOL®, 5beta, 20-epoxy-1,2alpha, 4,7beta, 10beta, 13alpha-hexahydroxytax-11-en-9-one 4,10-diacetate 2-benzoate 13-ester with (2R,3S)—N-benzoyl-3-phenylisoserine]
[1]; 4T1, day 27 post-implant, i.v. 2 times per week for 2 weeks, total dose of TAXOL® 32 μg/kg, n=6
  final volume of the tumor: 1.70±0.42 ×103 mm3
[1]; 4T1, end of study, identical dose of TAXOL® (8 μg/kg per injection), n=6
  tumor growth inhibition (TGI) rate: 26.2±1.2%
[1]; 4T1-bearing mice, day 27 post-implant
  nodules in the lung (metastasis of 4T1 tumor): nodules were widely located in the lung
[2]; B16
  TGI: 47.3±1.2%
[2]; B16-bearing C57BL/6 mice, total dose of TAXOL® 32 μg/kg, n=6
  tumor volume on the final day: 1.29±0.50 ×103 mm3
[3]
  tumor volume on the final day: 1.21±0.31 ×103 mm3
[4]; regimen 135/24
  Response rate: 13.2%
  Survival, median: 10.7 months
  Time to Progression, median: 2.8 months
[4]; regimen 155/3 as printed
  Response rate: 15.2%
  Time to Progression, median: 3.1 months
[4]; regimen 175/3 (mg/m2 / infusion h)
  Response rate: 14.6%
[4]; regimen 175/3
  Survival, median: 11.5 months
  Time to Progression, median: 4.4 months
[4]; regimen 175/4
  Response rate: 21.7%
  Survival, median: 11.8 months
  Time to Progression, median: 4.2 months
[5]; regimen 135/3
  Response rate: 22%
  Survival, median: 10.5 months
  Time to Progression, median: 3.0 months
[5]; regimen 175/3
  Response rate: 28%
  Survival, median: 11.7 months
  Time to Progression, median: 4.2 months

## Protin-102: clathrin heavy chain
[6]; compared with axillary and inguinal lymph nodes
  distribution among lymph nodes: concentration in the mesenteric lymph nodes
[6]; labeled with CF680
  organ with the highest level of signal: liver
